Measurements: patent US7112680B2, “Heterocyclic hydrazones for use as anti-cancer agents” (Austria Wirtschaftsservice Gesellschaft MIT Beschrankter …, priority 2000, dated 2006)
Like-named read-outs stand apart in the source and are kept apart here.

Tests used:
[1] = tested on: K562 (chronic myelogenous leukemia); experiment: Inhibition of tumor cell growth, K562; assay type: cell-based, human; details: 72 hours
Experimental: (§1) In order to obtain information about the growth-inhibiting action on tumor cells, the inhibition of the growth of the following human tumor cells was determined: Burkitt's lymphoma (CA 46, ATCC No. CRL 1648), CCRF-CEM (acute lymphoblastic leukemia, ATCC No. CCL 119), K562 (chronic myelogenous leukemia, ATTC No. CCL 243), HeLa (epitheloid cervix carcinoma, ATCC No. CCL 2), MEXF 276L (melanoma), HT-29 (colon adenocarcinoma, ATCC No. HTB 38), KB-3-1 (human oral epidermoid carcinoma, CTCC No. CCL 17), KB-HU hydroxyurea-resistant, multidrug-resistant KB-C1 cells (Akiyama et al, Cell. Mol Genet., 11:117–126, 1985). Burkitt's, CCRF-CEM, HeLa and MEXF 276L cells were grown in RPMI 1640, HT-29 cells in McCoy's 5A medium. The KB cell lines were grown in Dulbecco's modified Eagle's medium (4,5 g glucose/l). To the cultures of KB-C1 cells 1 μg of colchicine/ml, and to the hydroxyurea-resistant KB-HU cells 1 mM hydroxyurea was added every other week. The media were supplemented with 10% fetal calf serum (except Burkitt's lymphoma cells with 15%), 2 mM glutamine, 50 units/ml penicillin and 50 μg/ml streptomycin. Inhibition of growth of HeLa, HT-29, KB and MEXF 276L cells was detected by the SRB-assay (Skehan et al, J. Natl Cancer Inst., 82:1107–1112, 1990). 3,000 - 10,000 cells in 200 μl medium were seeded per well into 96-well plates. Dose-response curves for CCRF-CEM and Burkitt's lymphoma cells were effected by an MTT-assay (Mosman, J. Immunol Methods, 65:55–63, 1983) from Boehringer Mannheim, Mannheim, Germany. Approximately 10,000 cells per 100 μl were seeded in 96-well plates. After an initial incubation of four hours, various substance concentrations were added, and the cells were incubated at 37° C. in a water-saturated atmosphere of 95% air and 5% CO2 for 72 hours. The substances were dissolved in dimethylsulfoxide (DMSO). The concentration of DMSO was 0.5%, and this was not toxic to the cells. Subsequently, the samples were fixed, washed, and the absorption was determined by a microplate reader.

[2] = tested on: HeLa (epitheloid cervix carcinoma); experiment: Inhibition of tumor cell growth, SRB-assay, HeLa; assay type: cell-based, human
[3] = tested on: human tumor grafts (cell lines of FIG. 1); experiment: Colony forming assay (two-layer soft agar); assay type: cell-based; details: for tumor type selectivity: IC70 pattern, FIG. 1; for IC50 / IC90 / Mean IC70: mean values of all cell lines tested in FIG. 1, continuous exposure 3 to 6 days
Experimental: An excellent correlation of drug response in patients and the colony forming assay has been found (Scholz et al, Eur. J. Cancer 25:901–905, 1990). Solid human tumors were grown as grafts in nude mice, removed from the latter, mechanically comminuted and subsequently incubated in an enzyme cocktail consisting of collagenase (1.2–1.8 U/ml), DNAse (375 U/ml) and hyaluronidase (29 U/ml) in RPMI 1640 medium at 37° C. for 30 minutes. The cell mixture was passed through sieves of 200 μm and 50 μm mesh size and washed thereafter twice with PBS (phosphate buffered saline). The percentage of live cells was determined using a Neubauer counting chamber and trypan blue staining.
The colony forming assay was performed according to a two-layer agar technique introduced and modified by Hamburger and Salmon (Hamburger and Salmon, Science, 197:461–463, 1977). The bottom layer consisted of 0.2 ml of Iscoves's Modified Dulbecco's medium with 20% fetal calf serum and 0.75% agar. 8×10^3 to 1.6×10^4 cells were added to the same medium and 0.4% agar and plated in 24-multiwell plates onto the base layer. One day after the plating (with continuous exposure), the substances were added in 0.2 ml medium. Each plate included six controls containing the solvent only, and the treated groups contained 6 concentrations of the substances, each in triplicate. Cultures were incubated at 37° C. and 7% CO2 in a water-saturated atmosphere for 3 to 6 days, depending on the doubling time of the tumor cells. At the time of maximum colony formation with a size of […], counts were performed with an automatic image analysis system. 24 h prior to counting, live colonies were stained with a sterile aqueous solution of 2-(4-iodophenyl)-3-(4-nitrophenyl)-5-phenyltetrazolium chloride (1 mg/ml, 100 μl/well). The results of the tests are given in FIG. 1, and in the following Table 5, respectively. […] Columns pointing towards the right show a slighter than average activity.

[4] = tested on: HT-29 (colon adenocarcinoma); experiment: Inhibition of tumor cell growth, SRB-assay, HT-29; assay type: cell-based, human
Experimental: (§2) The KB cell lines were grown in Dulbecco's modified Eagle's medium (4,5 g glucose/l). To the cultures of KB-C1 cells 1 μg of colchicine/ml, and to the hydroxyurea-resistant KB-HU cells 1 mM hydroxyurea was added every other week. […] 3,000 - 10,000 cells in 200 μl medium were seeded per well into 96-well plates. […] Approximately 10,000 cells per 100 μl were seeded in 96-well plates. […] The substances were dissolved in dimethylsulfoxide (DMSO). […] Subsequently, the samples were fixed, washed, and the absorption was determined by a microplate reader.

[5] = tested on: Burkitt's lymphoma (CA 46, ATCC No. CRL 1648); experiment: Inhibition of tumor cell growth, MTT-assay, Burkitt's lymphoma; assay type: cell-based, human
Experimental: as §2

[6] = tested on: Burkitt's lymphoma cells; experiment: Apoptosis determination with propium iodide; assay type: cell-based, human; details: for apoptotic cells: twice the IC50 concentrations, 48 hours, non-treated cells 1.7%; for induction of apoptosis (in words): tumor cells
Experimental: In non-treated Burkitt's lymphoma cells, an average of 1.7% are apoptotic. […] The determination of the apoptosis was performed with propium iodide (Nicoletti et al., Rapid and Simple Method for Measuring Thymocyte Apoptosis by Propium Iodine Staining and Flow Cytometry, J. Immunol. Methods, 139, 271–279, 1991).

[7] = tested on: multidrug-resistant KB-C1 cells; experiment: Inhibition of tumor cell growth, SRB-assay, KB-C1; assay type: cell-based, human; details: read-out: In vitro-activity against human tumor cell lines, KB-C1
Experimental: as §1

[8] = tested on: KB-3-1 (human oral epidermoid carcinoma); experiment: Inhibition of tumor cell growth, SRB-assay, KB-3-1; assay type: cell-based; details: read-out: In vitro-activity against human tumor cell lines, KB-3-1
Experimental: as §1

[9] = tested on: KB-HU hydroxyurea-resistant cells; experiment: Inhibition of tumor cell growth, SRB-assay, KB-HU; assay type: cell-based, human; details: Table 4, 72 hours, read-out: In vitro-activity against human tumor cell lines, KB-HU
Experimental: as §1

[10] = Table 1, 72 hours, read-out: IC50 HeLa (converted)
[11] = Table 1, 72 hours, read-out: IC50 HT-29 (converted)
[12] = Table 1, 72 hours, read-out: IC50 Burkitts
[13] = Homo sapiens, HeLa, Table 3, 72 hours, read-out: IC50 HeLa (converted)
[14] = Homo sapiens, CA46, Table 3, 72 hours, read-out: IC50 Burkitts
[15] = Homo sapiens, HT-29, Table 3, 72 hours, read-out: IC50 HT-29 (converted)
[16] = Table 3, 72 hours, read-out: IC50 HeLa (converted)
[17] = Table 3, 72 hours, read-out: IC50 Burkitts
[18] = Table 3, 72 hours, read-out: IC50 HT-29 (converted)

## CC(C)C(=NNc1nc2ccccc2n1C)c1ccccn1 [Ia-16]
[1]; Table 1
  IC50: 50 nM
[2]; [10]
  IC50: 6 nM
[3]; colony forming assay
  tumor type selectivity: selectivity for colon, breast, ovarian, and uterus tumors
[3]
  IC50: 188 nM
  IC90: 3.77 µM
  Mean IC70: 0.521 µM
[4]; [11]
  IC50: 5.58 µM

## CCC(=NNc1nc2ccccc2n1C)c1ccccn1 [Ia-8]
[1]; Table 1
  IC50: 90 nM
[2]; [10]
  IC50: 20 nM
[5]; [12]
  IC50: 1010 nM
[4]; [11]
  IC50: 11 µM

## CCCC(=NNc1nc2ccccc2n1C)c1ccccn1 [Ia-12]
[1]; Table 1
  IC50: 80 nM
[2]; [10]
  IC50: 17 nM
[3]
  IC50: 246 nM
  IC90: 3.74 µM
  Mean IC70: 0.603 µM
[5]; [12]
  IC50: 1780 nM
[4]; [11]
  IC50: 16.3 µM

## Cn1c(NN=C(c2ccccn2)C(C)(C)C)nc2ccccc21 [Ia-20]
[1]; Table 1
  IC50: 1680 nM
[2]; [10]
  IC50: 530 nM
[3]
  IC50: 15 nM
  IC90: 0.231 µM
  Mean IC70: 0.064 µM
[5]; [12]
  IC50: 8430 nM
[4]; [11]
  IC50: > 100 µM

## CC(=NNc1nc2ccccc2n1-c1ccccc1)c1ccccn1 [Ic-7, 1-(2-Pyridyl)-1-ethanone-1-(1-phenyl-1H-benzo[d]imidazol-2-yl)-hydrazone]
[1]; Homo sapiens, K562, Table 3
  IC50: 700 nM
[2]; [13]
  IC50: 50 nM
[3]; Homo sapiens
  IC50: 760 nM
  IC90: 6.3 µM
[3]
  Mean IC70: 1.741 µM
[5]; [14]
  IC50: 3480 nM
[4]; [15]
  IC50: 0.1 µM

## CC(=NNc1nc2ccccc2n1C(C)C)c1ccccn1 [Ic-3]
[1]; Table 3
  IC50: 330 nM
[2]; [16]
  IC50: 60 nM
[3]
  IC50: 265 nM
  IC90: 4.3 µM
  Mean IC70: 0.750 µM
[5]; [17]
  IC50: 2140 nM
[4]; [18]
  IC50: 16.1 µM

## NC(=O)NO [hydroxyurea, reference compound]
[3]; colony forming assay, Table 5 / FIG. 1
  in vitro anti-tumor activity against human cancer cells (in words): far lower than that of the compounds according to the invention
[6]
  apoptotic cells: 7.3%

## CC(=NNc1nc2ccccc2n1Cc1ccccc1)c1ccccn1 [Ic-8]
[1]; Table 3
  IC50: 450 nM
[2]; [16]
  IC50: 130 nM
[5]; [17]
  IC50: 3580 nM
[4]; [18]
  IC50: 0.16 µM

## CCCn1c(NN=C(C)c2ccccn2)nc2ccccc21 [Ic-2]
[1]; Table 3
  IC50: 120 nM
[2]; [16]
  IC50: 210 nM
[5]; [17]
  IC50: 1280 nM
[4]; [18]
  IC50: 35.1 µM

## C=CCn1c(NN=C(C)c2ccccn2)nc2ccccc21 [Ic-5]
[1]; Table 3
  IC50: 180 nM
[2]; [16]
  IC50: 10 nM
[3]; colony forming assay
  tumor type selectivity: selectivity for colon, breast, ovarian, and uterus tumors
[3]
  IC50: 214 nM
  IC90: 3.33 µM
  Mean IC70: 0,607 μM
[5]; [17]
  IC50: 980 nM
[4]; [18]
  IC50: 12.8 µM

## Cn1c(NN=C(c2ccccc2)c2ccccn2)nc2ccccc21 [Ia-29]
[1]; Table 1
  IC50: 60 nM
[2]; [10]
  IC50: 9 nM
[3]; colony forming assay
  tumor type selectivity: selectivity for colon, breast, ovarian, and uterus tumors
[3]
  IC50: 294 nM
  IC90: 4.66 µM
  Mean IC70: 0.741 µM
[4]; [11]
  IC50: 8.74 µM

## CC(=NNc1nc2ccccc2n1C)c1cccc(-c2ccccc2)n1 [Id-17, 1-(6-Phenyl-2-pyridyl)-1-ethanone-1-(1-methyl-1H-benzo[d]imidazol-2-yl)-hydrazone]
[2]; Homo sapiens, HeLa, Table 4, 72 hours, read-out: In vitro-activity against human tumor cell lines, HeLa
  IC50: 2350 nM
[5]; Homo sapiens, CA46, Table 4, 72 hours, read-out: In vitro-activity against human tumor cell lines, Burkitts
  IC50: 1450 nM
[7]; Homo sapiens, KBC-1, Table 4, 72 hours
  IC50: 3080 nM
[6]
  induction of apoptosis (in words): capable of inducing apoptosis
  apoptotic cells: 85%
[8]; Homo sapiens, KB 3-1, Table 4, 72 hours
  IC50: 3.85 µM
[4]; Homo sapiens, HT-29, Table 4, 72 hours, read-out: In vitro-activity against human tumor cell lines, HT-29
  IC50: 3.36 µM
[9]; Homo sapiens
  IC50: 9.94 µM

## CC(=NNc1nc2ccccc2n1C)c1cc(N(C)C)ccn1 [Id-12]
[2]; Table 4, 72 hours, read-out: In vitro-activity against human tumor cell lines, HeLa
  IC50: 3740 nM
[5]; Table 4, 72 hours, read-out: In vitro-activity against human tumor cell lines, Burkitts
  IC50: 2210 nM
[7]; Table 4, 72 hours
  IC50: 810 nM
[6]
  induction of apoptosis (in words): capable of inducing apoptosis
  apoptotic cells: 60%
[8]; Table 4, 72 hours
  IC50: 2.28 µM
[4]; Table 4, 72 hours, read-out: In vitro-activity against human tumor cell lines, HT-29
  IC50: 5.07 µM
[9]
  IC50: 0.05 µM

## CC(=NNc1nc2ccccc2n1C1CC1)c1ccccn1 [Ic-6]
[1]; Table 3
  IC50: 90 nM
[2]; [16]
  IC50: 400 nM
[4]; [18]
  IC50: 11.2 µM

## Cn1c(NN=C(c2ccccn2)C2CC2)nc2ccccc21 [Ia-24, E/Z-Cyclopropyl-(2-pyridyl)-methanone-(1-methyl-1H-benzo[d]imidazol-2-yl)-hydrazone]
[1]; Table 1
  IC50: 40 nM
[2]; [10]
  IC50: 2 nM
[3]; colony forming assay
  tumor type selectivity: selectivity for colon, breast, ovarian, and uterus tumors
[3]
  IC50: 138 nM
  IC90: 3.14 µM
  Mean IC70: 0.387 µM
[4]; [11]
  IC50: 2.88 µM

## Cn1c(NN=C(c2ccccn2)c2ccccn2)nc2ccccc21 [Ia-37]
[1]; Table 1
  IC50: 30 nM
[2]; [10]
  IC50: 90 nM
[4]; [11]
  IC50: 4.64 µM

## CCn1c(NN=C(C)c2ccccn2)nc2ccccc21 [Ic-1, 1-(2-Pyridyl)-1-ethanone-1-(1-ethyl-1H-benzo[d]imidazol-2-yl)hydrazone]
[1]; Homo sapiens, K562, Table 3
  IC50: 60 nM
[2]; [13]
  IC50: 190 nM
[5]; [14]
  IC50: 680 nM
[4]; [15]
  IC50: 11.9 µM
